Results from PMC8724251, “A Supramolecular Nanoparticle of Pemetrexed Improves the Anti-Tumor Effect by Inhibiting Mitochondrial Energy Metabolism” (Frontiers in Bioengineering and Biotechnology, 2021).
Like-named read-outs stand apart in the source and are kept apart here. Square brackets hold non-standard residues; d marks the D form. Ends that are not written are not given here. Peptide text beside a SMILES is read from it. * marks the point of attachment. ξ: configuration not given here. X1 = Nc1nc2[nH]cc(CCc3ccc(C(=O)*)cc3)c2c(=O)[nH]1; ξE = NC(CCC(=O)O)C(=O)O

Experiments:
[1] = tested on: A549 cells; test: MTT viability assay, A549 cells
Procedure: (§1) Lewis lung cancer (LLC) and A549 cells (100 µl) were plated at a concentration of 5 × 10^3 cells/well in a flat-bottomed 96-well plate on Day 0. […] Then, the culture medium was removed, and MTT (0.5 mg/ml) was added to each well and incubated for 4 h. The supernatant was discarded, and dimethyl sulfoxide (100 µl) was used to completely dissolve the crystals.

[2] = tested on: Lewis lung tumors; test: In vivo antitumor efficacy in LLC tumor-bearing mice; set-up: species or system C57BL/6J mice; conditions: LLC subcutaneous tumors, i.v., 20 mg/kg, two injections, tumor volumes within 2 weeks, n = 5
Procedure: (§2) C57BL/6J mice were subcutaneously inoculated with Lewis lung tumors and then randomly divided into four groups (5 mice per group) when the tumor sizes were approximately 100 mm^3. Mice in Groups 1 and 2 received PBS and FFRGD gels through i.v. injections, while mice in Groups 3 and 4 were administered 20 mg/kg PEM and PEM-FFRGD nanoparticles by i.v. injection. Repeated injections were administered on Days 1 and 5. Tumor size and body weight were monitored every 2 days, and the tumor volume was calculated according to the following formula: tumor volume (V, mm^3) = (tumor width)^2 × (tumor length)/2.

[3] = tested on: LLC cells; test: MTT viability assay, LLC cells
Procedure: as §1

[4] = tested on: LLC cells; test: Live/dead assay (calcein-AM / EthD-1), LLC cells; assay type: cell-based; conditions: 6 μM, 72 h, calcein-AM/EthD-1, microscopy
Procedure: (§3) LLC cells and A549 cells (5,000 cells/well) were plated in 96-well plates and cultured for 24 h. Then, the cells were cocultured with 6 and 12 µM PEM and PEM-FFRGD for 72 h, respectively. The cells were washed with PBS and stained with calcein-AM and ethidium homodimer-1 (EthD-1) for 15 min. Then, the cells were viewed under microscopy (TI-S, Nikon, United States).

[5] = Body weight and serum TNFα, IL-6, ALT, AST in LLC tumor-bearing mice; assay type: in vivo, C57BL/6J mice; conditions: for mouse weight: i.v., monitored every 2 days
Procedure: as §2

[6] = tested on: A549 cells; test: Live/dead assay (calcein-AM / EthD-1), A549 cells; assay type: cell-based; conditions: 12 μM, 72 h, calcein-AM/EthD-1, microscopy
Procedure: as §3

[7] = LLC tumor-bearing mice, i.v. 20 mg/kg, n = 5

| Molecule | cytotoxicity toward A549 cells, 24 h [1] | tumor growth [2] | cytotoxicity toward LLC cells, 24 h [3] | cell killing in live/dead staining, LLC cells [4] | mouse weight ([5]; LLC tumor-bearing mice, n = 5) | cell killing in live/dead staining, A549 cells [6] | cytotoxicity toward A549 cells, 24 h ([1]; MTT, different concentrations, 24 h incubation) | cytotoxicity toward A549 cells, 48 h ([1]; MTT, different concentrations, 48 h incubation, viability lower than with PEM) | cytotoxic activity toward A549 cells compared with PEM alone ([1]; MTT, series of concentrations, 72 h) | cytotoxic activity toward LLC cells compared with PEM alone [3] | cytotoxicity toward LLC cells, 48 h [3] | serum level of ALT versus PBS and PEM alone [5, 7] | serum level of AST versus PBS and PEM alone [5, 7] | serum level of IL-6 versus PBS and PEM alone [5, 7] | serum level of TNFα versus PBS and PEM alone [5, 7] | systemic toxicity in mice ([5]; from body weight and serum TNFα, IL-6, ALT, AST) | cell toxicity at 100 μM (A549 cells) ([1]; MTT, 100 μM, 72 h) | cell toxicity at 100 μM (LLC cells) ([3]; MTT, 100 μM, 72 h) |
| --- | --- | --- | --- | --- | --- | --- | --- | --- | --- | --- | --- | --- | --- | --- | --- | --- | --- | --- |
| Nc1nc2[nH]cc(CCc3ccc(C(=O)N[C@@H](CCC(=O)O)C(=O)O)cc3)c2c(=O)[nH]1 [PEM, Pemetrexed] | no cytotoxicity | significantly inhibited | no cytotoxicity | could kill most cells | no influence on mouse weight | could kill most cells |  |  |  |  |  |  |  |  |  |  |  |  |
| N=C(N)NCCC[C@H](NC(=O)[C@H](Cc1ccccc1)NC(=O)[C@H](Cc1ccccc1)NC(=O)C(CCC(=O)O)NC(=O)c1ccc(CCc2c[nH]c3nc(N)[nH]c(=O)c23)cc1)C(=O)NCC(=O)N[C@@H](CC(=O)O)C(=O)O (some centres unmarked) [PEM-FFRGD] (X1-[ξE]FFRGD-OH) |  |  | no cytotoxicity |  |  |  | no cytotoxicity | showed cytotoxic activity | stronger cytotoxic activity | stronger cytotoxic activity | showed cytotoxic activity | not different | not different | not different | not different | no systemic toxicity |  |  |
| FFRGD [FFRGD, reference compound] |  |  |  |  | no influence on mouse weight |  |  |  |  |  |  |  |  |  |  |  | did not display any distinct cell toxicity | did not display any distinct cell toxicity |
